Test results as given in patent publication US4289645A (priority 1980, dated 1981).
Values joined by “and” are separate entries in the source; they are usually repeats but may differ in a detail not shown here. Equal entries are not always repeated. Where two headings read alike, the source gives them in different places.

Key:
[1] = Test for identification of mu-amines compatible with hydroquinone (Example 6); type: physicochemical; design: key: An asterisk (*) in a column indicates a positive result; settings: for Step 4: Not mu-Amine / Step 4: Possible mu-Amine: 10 g amine, 10 g hydroquinone, 80 g water; for Step 4: Not mu-Amine: precipitation after 3 min stirring; for Step 4: Possible mu-Amine: no precipitate after 3 min stirring; for Step 6: Possible mu-Amine: passes unhindered through 5 micron filter
From the text: The steps of this test are as follows:
Step 1: To a 1 pint glass jar which can be equipped with a cover lid add 80.0 grams of demineralized water and 10.0 grams of the amine to be tested.
Step 2: Stir the contents of the jar for one minute, preferably via a magnetic stirrer. If the amine is a solid, stir until complete dissolution into the water is attained.
Step 4: Stir the contents of the jar for three minutes. If precipitation within the jar occurs, then the amine is not a mu-amine. If no precipitate formation within the jar is evident, the amine may possibly be a mu-amine, so proceed to Step 5.
Step 5: Seal the jar and stir vigorously for seven minutes.
Step 6: After stirring, filter the contents of the jar through a 5 micron filter paper via suction. […] If the contents of the jar pass unhindered through the filter paper, the amine may possibly be a mu-amine and Steps 7 and 8 should be performed.
Step 7: Remove a 1.0 ml aliquot from the filtration flask or receiver (i.e., an aliquot of the former jar contents) with a syringe.
Step 8: Inject the contents of the syringe into the room temperature oxygen scavenger apparatus described in Example 4 above which contains air-saturated, demineralized water and sufficient sodium hydroxide to result in a pH 9-10 range in the reaction flask. If at least 70% of the dissolved oxygen initially present in the air-saturated water is removed within one minute after injection, the amine is definitely a mu-amine. If at least 70% of the dissolved oxygen is not removed within one minute, then the amine is not a mu-amine.
Reported below in Table 7 are the results of tests using the above described procedure for various amines. An asterisk (*) in a column indicates a positive result.

[2] = Compatibility of amines with hydroquinone in solution (description); type: physicochemical
From the text: To provide convenient single-drum treatments, it was decided to test-formulate various dioxo aromatic compounds with neutralizing amines.

[3] = Oxygen scavenging of hydroquinone/mu-amine, ambient temperature (Example 7); settings: Table 8; 60 seconds, 23-25 °C, 103 ppm hydroquinone + 103 ppm mu-amine
Procedure: The flask was filled with deionized water which had been stripped of some dissolved oxygen by bubbling nitrogen through a diffuser stone. The pH was adjusted to the desired level with sodium hydroxide. The flask was sealed with a rubber septum, the dissolved oxygen probe and the pH electrode. A magnetic stirrer bar was left in the flask for mixing. The mixer was turned on, and dissolved oxygen and temperature readings were recorded until the dissolved oxygen reached a constant value. Next, the appropriate quantity of additive was injected through the septum using a hypodermic syringe. The initial mole ratio of treatment to dissolved oxygen was determined by weighing feed chemical and measuring the oxygen concentration. […] Dissolved oxygen and temperature readings were then taken at appropriate time intervals.
Using the same apparatus and procedure as described in Example 4 above, oxygen scavenging experiments were performed by injecting 1 ml of stock solution into a glass vessel containing 1070 ml of air-saturated, demineralized water adjusted to the appropriate pH with 7 N sodium hydroxide. The results of these tests are given in Table 8 below in terms of % oxygen removal at 60 seconds. […] The final pH values indicated are for the test water.

[4] = for mu-amine required to effect dissolution: added to saturated aqueous hydroquinone (10.0 g hydroquinone, 89.5 g water)
Procedure: Volumes of mu-amines required to effect dissolution were recorded and converted to weights via density.

[5] = Oxygen scavenging at various concentrations and weight ratios of hydroquinone and mu-amine (Example 9)
Procedure: Using the same apparatus and procedure as described in Example 4 above, oxygen scavenging experiments were performed by injecting 1 ml of stock solution into a glass vessel containing 1070 ml of air-saturated, demineralized water adjusted to the appropriate pH with 7 N sodium hydroxide. […] The final pH values indicated are for the test water.
(§1) The stock solution concentrations are presented in terms of weight % aqueous. The stock solutions were each 100 grams total. […] The tests were conducted at ambient temperature (23°-25° C.).

[6] = Dissolution and storage stability of hydroquinone/methoxypropylamine solutions (Example 11); type: physicochemical
Procedure: The following 25 gram solutions were prepared and sealed in glass bottles (components listed in order of addition):
Fifty (50) grams of each of the following solutions were prepared in glass bottles, sealed and placed on a shaker for two hours: […]

[7] = Thermal stability of amines (description); type: physicochemical; settings: of the amines tested
[8] = Oxygen scavenging of hydroquinone/mu-amine in hot water flow system (Example 8); settings: Table 10; 6.7 ppm hydroquinone + 6.7 ppm mu-amine, 78±1 °C, 3-5 psig, 240±10 s, pH 9.7
From the text: The specific experimental conditions were:
Reaction Time=240±10 seconds
The initial oxygen levels are reported as parts per billion (ppb).

[9] = cited from earlier work
[10] = cited from earlier work; for % O2 Removed, 1 Minute: hydroquinone: pH 8.6, 22.5 °C, 0.94 mole/mole O2
[11] = cited from earlier work; remark: listed apart in the source
[12] = cited from earlier work; for % O2 Removed: Table 1, 78±3 °C, 4±1 psig, about 4 min, feedwater 58-100 ppm, initial O2 1.8-2.3 ppm; for oxygen scavenging in the test water: conclusion from Table 1
[13] = for % O2 Removed: 60 s
Procedure: as §1
The tests were conducted at ambient temperature (23°-25° C.).

rats = settings: conclusion from Table 4; cited from earlier work
[14] = conclusion from Table 6; cited from earlier work
[15] = hydroquinone alone in water; cited from earlier work
[16] = high pressures; cited from earlier work
[17] = 1.5% mu-amine, 10.0% hydroquinone (6.67:1)
[18] = 90.0% mu-amine, 10.0% hydroquinone (1:9)
[19] = hydrazine: pH 9.2, 26.5 °C, 10.5 mole/mole O2

NC1CCCCC1 [Cyclohexylamine, reference compound]
Step 4: Not mu-Amine [1]: * | compatibility with hydroquinone in solution [2]: precipitated out of solution

CC(O)CNCC(C)O (stereo not drawn) [Diisopropanolamine]
Step 4: Possible mu-Amine [1]: * | Step 6: Possible mu-Amine [1]: * | % O2 Removed [3]: 86%

CN(C)CCCN [Dimethylaminopropylamine]
Step 4: Possible mu-Amine [1]: * | Step 6: Possible mu-Amine [1]: * | % O2 Removed [3]: 76% | mu-amine required to effect dissolution [4]: 1.7 grams | % O2 Removed At 60 Seconds [5, 17]: 94% | % O2 Removed At 60 Seconds ([5]; 30.0% mu-amine, 10.0% hydroquinone (1:3)): 99% | % O2 Removed At 60 Seconds [5, 18]: 98%

NCCN [Ethylenediamine]
Step 4: Possible mu-Amine [1]: * | Step 6: Possible mu-Amine [1]: * | % O2 Removed [3]: 85%

NCCCCCCN [Hexamethylenediamine, reference compound]
Step 4: Not mu-Amine [1]: *

COCCCN [Methoxypropylamine]
Step 4: Possible mu-Amine [1]: * | Step 6: Possible mu-Amine [1]: * | lowest practical MOPA concentration in the mixture ([6]; aqueous 10% hydroquinone): 2% | mu-amine required to effect dissolution [4]: 1.7 grams | thermal stability [7]: most thermally stable | % O2 Removed [8]: 99% | % O2 Removed At 60 Seconds [5, 17]: 96% | % O2 Removed At 60 Seconds ([5]; 2.0% mu-amine, 10.0% hydroquinone (5:1)): 96% | % O2 Removed At 60 Seconds ([5]; 3.0% mu-amine, 10.0% hydroquinone (3.33:1)): 96% | % O2 Removed At 60 Seconds ([5]; 15.0% mu-amine, 15.0% hydroquinone (1:1)): 95% | % O2 Removed At 60 Seconds ([5]; 20.0% mu-amine, 20.0% hydroquinone (1:1)): 98% | % O2 Removed At 60 Seconds ([5]; 30.0% mu-amine, 30.0% hydroquinone (1:1)): 98% | % O2 Removed At 60 Seconds ([5]; 40.0% mu-amine, 40.0% hydroquinone (1:1)): 94% | % O2 Removed At 60 Seconds [5, 18]: 94%

NCCO [Monoethanolamine]
Step 4: Possible mu-Amine [1]: * | Step 6: Possible mu-Amine [1]: * | % O2 Removed [3]: 75%

CC(O)CN (stereo not drawn) [Monoisopropanolamine]
Step 4: Possible mu-Amine [1]: * | Step 6: Possible mu-Amine [1]: * | % O2 Removed [8]: 98%

C1COCCN1 [Morpholine, reference compound]
Step 4: Not mu-Amine [1]: * | compatibility with hydroquinone in solution [2]: precipitated out of solution

C1CN2CCN1CC2 [Triethylenediamine, reference compound]
Step 4: Not mu-Amine [1]: *

NCCNCCNCCN [Triethylenetetramine]
Step 4: Possible mu-Amine [1]: * | Step 6: Possible mu-Amine [1]: * | % O2 Removed [3]: 89%

NN [hydrazine]
% O2 Removed ([9]; control run 1: 1.6 ppm, pH 8.8, steam load 11, initial O2 13.0 ppb): 69% | % O2 Removed ([9]; control run 2: 1.1 ppm, pH 9.4, steam load 15, initial O2 4.0 ppb): 50% | % O2 Removed ([9]; control run 3: 1.2 ppm, pH 8.6, steam load 15, initial O2 6.0 ppb): 60% | % O2 Removed ([9]; control run 4: 1.0 ppm, pH 8.8, steam load 15, initial O2 5.8 ppb): 55% | % O2 Removed ([9]; control run 5: 0.8 ppm, pH 9.4, steam load 11, initial O2 3.5 ppb): 31% | % O2 Removed ([9]; control run 6: 1.6 ppm, pH 9.6, steam load 14, initial O2 4.0 ppb): 30% | % O2 Removed, 5 Minutes [10, 19]: 2% | % O2 Removed, 1 Minute [10, 19]: 1% | pH of maximum oxygen scavenging efficacy ([11]; in solution, Cohn and Powell 1954): 10.0-10.5 | rate of reaction with oxygen ([11]; low temperatures such as room temperature): very slow

Oc1ccc(O)cc1 [hydroquinone]
active hydroquinone concentration attainable in stable aqueous solution ([6]; 1 to 1 with methoxypropylamine, sealed storage 12 days): up to 40% | Dissolution time ([4]; 6.3 g hydroquinone in 89.5 g demineralized water, solutions #1, #2, #3): 23 min and 19 min and 21 min | MOPA required to dissolve hydroquinone ([4]; 10.0 g hydroquinone in neat MOPA): 12.5 grams | % O2 Removed [12]: 97% | oxygen scavenging in the test water [12]: at least equivalent to, if not better than, hydrazine | % O2 Removed ([13]; 0 methoxypropylamine, 1.0% hydroquinone): 9% | % O2 Removed ([13]; 0 methoxypropylamine, 3.0% hydroquinone): 17% | % O2 Removed ([13]; 0 methoxypropylamine, 6.0% hydroquinone): 27% | % O2 Removed ([13]; 1.0% methoxypropylamine, 1.0% hydroquinone): 10% | % O2 Removed ([13]; 1.0% methoxypropylamine, 6.0% hydroquinone): 78% | % O2 Removed ([13]; 3.0% methoxypropylamine, 3.0% hydroquinone): 74% | % O2 Removed ([13]; 6.0% methoxypropylamine, 1.0% hydroquinone): 17% | % O2 Removed ([13]; 6.0% methoxypropylamine, 6.0% hydroquinone): 93% | effect of mu-amine addition on oxygen scavenging efficacy ([13]; conclusion from Table 12): increases the oxygen scavenging efficacy | % O2 Removed ([9]; 1.9 ppm actives, pH 8.4, steam load 15, initial O2 8.0 ppb): 88% | % O2 Removed ([9]; 1.9 ppm actives, pH 8.4, steam load 15, initial O2 10.0 ppb): 90% | efficacy in treating boiler feedwater ([9]; conclusion from Tables 2 and 3): efficacious in treating boiler feedwater and compared favorably with hydrazine | toxicity versus hydrazine (rats): significantly less toxic as compared to hydrazine | reactivity at low temperature with oxygen versus hydrazine ([10]; conclusion from Table 5): superiority of hydroquinone, as compared to hydrazine | % O2 Removed, 1 Minute [10, 19]: 29% | thermal stability versus hydrazine [14]: superior thermal stability | aqueous hydroquinone solubility [15]: about 7%

Nc1ccccc1N [o-phenylenediamine]
% O2 Removed [12]: 10% | oxygen scavenging in the test water [12]: ineffective

Nc1ccc(N)cc1 [p-phenylenediamine]
% O2 Removed [12]: 35% | oxygen scavenging in the test water [12]: ineffective

Oc1cccc(O)c1 [resorcinol]
% O2 Removed [12]: 0% | oxygen scavenging in the test water [12]: ineffective

CCC(C)N (stereo not drawn) [sec-Butylamine]
Step 4: Possible mu-Amine [1]: * | Step 6: Possible mu-Amine [1]: * | % O2 Removed [3]: 74% | compatibility with hydroquinone in solution [2]: compatible with hydroquinone in solution

O=S([O-])[O-].[Na+].[Na+] [sodium sulfite]
decomposition in the boiler [16]: decomposes in the boiler to form sulfur dioxide and hydrogen sulfide

CC(C)(C)N [tert-Butylamine, reference compound]
Step 4: Not mu-Amine [1]: * | compatibility with hydroquinone in solution [2]: insoluble mass

Dimethyl(iso)propanolamine
Step 4: Possible mu-Amine [1]: * | Step 6: Possible mu-Amine [1]: * | % O2 Removed [3]: 73%
